# Data as given in patent US20260042764A1, “COMPOSITIONS AND METHODS FOR INHIBITION OF KRAS” (TheRas, Inc., priority 2022, published 2026).
# What was measured:
# [1] = target: T1, Avi-KRAS G12D (1-169) GppNHp/RAF1 RBD-3xFLAG (52-151) (Homo sapiens, UniProt P01116, G12D); test: Raf1-KRAS G12D-GppNHP disruption HTRF assay (Biological Example 1); format: binding
# T1 construct: Avi-KRAS G12D (1-169)
# Summary of the method: (§1)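 Compound disruption of KRAS-GppNHp/RAF1 RBD binding read by HTRF after two sequential 1 h room-temperature incubations (protein mix, then detection reagents), shaken at 700 rpm. Buffer Tris pH 7.5 with MgCl2, BSA, Tween and 10% DMSO; results given as percent activity relative to DMSO (100%).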
# [2] = target: T2, Avi-KRAS WT (1-169) GppNHp/RAF1 RBD-3xFLAG (52-151) (Homo sapiens, UniProt P01116); test: Raf1-KRAS WT-GppNHP disruption HTRF assay (Biological Example 1); format: binding
# T2 construct: Avi-KRAS WT (1-169)
# T2 sequence (P01116 1-169 isoform P01116-2): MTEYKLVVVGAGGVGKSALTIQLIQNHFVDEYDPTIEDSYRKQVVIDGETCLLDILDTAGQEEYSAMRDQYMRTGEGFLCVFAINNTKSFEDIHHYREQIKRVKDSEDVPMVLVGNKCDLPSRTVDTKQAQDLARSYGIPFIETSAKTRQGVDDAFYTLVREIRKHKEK
# Summary of the method: as §1
# [3] = target: T3, Avi-KRAS G12V (1-169) GppNHp/RAF1 RBD-3xFLAG (52-151) (Homo sapiens, UniProt P01116, G12V); test: Raf1-KRAS G12V-GppNHP disruption HTRF assay (Biological Example 1); format: binding
# T3 construct: Avi-KRAS G12V (1-169)
# T3 sequence (P01116 1-169 isoform P01116-2 G12V): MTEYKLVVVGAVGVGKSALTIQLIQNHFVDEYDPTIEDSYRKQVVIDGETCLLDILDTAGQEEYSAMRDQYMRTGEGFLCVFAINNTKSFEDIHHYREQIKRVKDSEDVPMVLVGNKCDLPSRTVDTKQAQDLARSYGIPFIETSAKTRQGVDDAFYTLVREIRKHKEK
# Summary of the method: as §1
# GP2d cells (KRAS G12D) = test: Cell-based pERK HTRF assay in GP2d cell (Biological Example 2); details: GP2d, GP2d (KRAS G12D) cells, pERK HTRF
# Summary of the method: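 Phospho-ERK is measured by HTRF following a 60 min compound exposure at 0.25% DMSO, with a 9-point half-log curve topping at 1 μM or 100 nM.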
# [4] = target: T4, Avi-KRAS G12R (1-169) GppNHp/RAF1 RBD-3xFLAG (52-151) (Homo sapiens, UniProt P01116, G12R); test: Raf1-KRAS G12R-GppNHP disruption HTRF assay (Biological Example 1); format: binding
# T4 construct: Avi-KRAS G12R (1-169)
# T4 sequence (P01116 1-169 isoform P01116-2 G12R): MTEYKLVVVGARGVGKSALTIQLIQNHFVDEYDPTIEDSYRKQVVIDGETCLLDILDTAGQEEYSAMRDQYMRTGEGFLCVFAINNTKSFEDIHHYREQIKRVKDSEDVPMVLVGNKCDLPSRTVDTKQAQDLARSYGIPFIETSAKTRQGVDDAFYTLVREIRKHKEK
# Summary of the method: as §1
# SW620 cells (KRAS G12V) = test: Cell-based pERK HTRF assay in SW620 cell (Biological Example 4); details: Homo sapiens, SW-620, SW620 (KRAS G12V) cells, pERK HTRF
# Method: A pERK assay (Perkin Elmer) was used to determine the effectiveness of compounds in disrupting KRAS G12V protein/effector signaling in cells.
# On Day 1, cells (SW620) were seeded into 96-well plates at 3×10^4 cells/well in 80 μL complete growth media (RPMI, 10% FBS).
# On Day 2, cells were treated with compounds at 0.25% DMSO. The source plate was created with compounds diluted in media at 5-fold the final assay concentration. The compounds were run in a 9-point concentration curve starting at 1 μM, with a half-log dilution between concentrations. Twenty μL was transferred onto the cell plates (final volume in wells was 100 μL). Plates were harvested after 4 h incubation by aspirating media and adding kit-supplied 1x supplemented lysis buffer to all wells (50 μL per well). Plates were then placed on a plate shaker and incubated at 850 rpm for an additional 30 min.
# Antibody mixture solution was prepared by diluting aliquoted d2 and Eu Cryptate antibodies 1:20 in kit supplied detection buffer and mixing the diluted antibodies solutions (1:1 v:v).
# Samples were homogenized by pipetting up and down and then transferred (16 μL of cell lysates) from the 96-well cell culture plate to two wells of the HTRF 384-well detection plate containing the antibody solution. Plates were centrifuged (524 g for Imin) and allowed to incubate between 4 and 24 h at room temperature. […] Plates were centrifuged again (524 g for 1 min), then analyzed on the En Vision plate reader using the following settings: Excitation 320 nm, Bandwidth 75 nm; Emission 615 nm, Bandwidth 85 nm; Gain 100%; Flashes 100; Lag 60 μs.
# [5] = KRAS G12D, GppNHp-loaded, class symbols
# [6] = KRAS WT, GppNHp-loaded, class symbols
# [7] = KRAS G12V, GppNHp-loaded, class symbols
# [8] = KRAS G12R, GppNHp-loaded, class symbols
# [9] = KRAS G12D, GppNHp-loaded, Table 11
# [10] = KRAS WT, GppNHp-loaded, Table 11
# [11] = KRAS G12V, GppNHp-loaded, Table 11
# [12] = KRAS G12R, GppNHp-loaded, Table 11
# T1 sequence (P01116 1-169 isoform P01116-2 G12D): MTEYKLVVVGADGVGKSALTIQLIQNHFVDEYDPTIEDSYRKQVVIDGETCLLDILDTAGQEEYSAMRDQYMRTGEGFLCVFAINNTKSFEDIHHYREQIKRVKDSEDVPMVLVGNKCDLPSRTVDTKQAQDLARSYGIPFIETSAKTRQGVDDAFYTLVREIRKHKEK
Compound,"IC50 [1, 5] [nM]","IC50 [2, 6] [nM]","IC50 [3, 7] [nM]",IC50 (GP2d cells (KRAS G12D); class symbols) [nM],"IC50 [4, 8] [nM]",IC50 (SW620 cells (KRAS G12V); class symbols) [nM],IC50 ([1]; KRAS G12D-GppNHp/RAF1 RBD HTRF) [nM],IC50 ([2]; KRAS WT-GppNHp/RAF1 RBD HTRF) [nM],IC50 ([3]; KRAS G12V-GppNHp/RAF1 RBD HTRF) [nM],IC50 (GP2d cells (KRAS G12D)) [nM],IC50 ([4]; KRAS G12R-GppNHp/RAF1 RBD HTRF) [nM],IC50 (SW620 cells (KRAS G12V)) [nM],"IC50 [1, 9] [nM]","IC50 [2, 10] [nM]","IC50 [3, 11] [nM]","IC50 [4, 12] [nM]"
"CCN1C[C@H](N(CC)c2nc(OC[C@@]34CCCN3C[C@H](F)C4)nc3c(F)c(-c4ccc(F)c5sc(N)c(C#N)c45)c(C(F)(F)F)cc23)CC1=O (atropisomer, axis not shown) [Compound 699]",100 to 1000,100 to 1000,100 to 1000,< 100,100 to 1000,< 100,–,–,–,–,–,–,–,–,–,–
"CCN(c1nc(OC[C@@]23CCCN2C[C@H](F)C3)nc2c(F)c(-c3ccc(F)c4sc(N)c(C#N)c34)c(C(F)(F)F)cc12)[C@H]1CCN(C(=O)O[C@H]2CCOC2)[C@@H]1C (atropisomer, axis not shown) [Compound 810]",< 100,< 100,< 100,< 100,< 100,< 100,–,–,–,–,–,–,–,–,–,–
C[C@@H]1C[C@H](N(C)c2nc(OC[C@@]34CCCN3C[C@H](F)C4)nc3c(F)c(-c4ccc(F)c5sc(N)c(C#N)c45)c(C(F)(F)F)cc23)CN1C(=O)C1CC1 [Compound 443],–,–,–,–,–,–,100 to 1000,100 to 1000,100 to 1000,< 100,100 to 1000,< 100,–,–,–,–
C[C@@H]1[C@H](N(C)c2nc(OC[C@@]34CCCN3C[C@H](F)C4)nc3c(F)c(-c4ccc(F)c5sc(N)c(C#N)c45)c(C(F)(F)F)cc23)CCN1C(=O)C1(C#N)CC1 [Compound 325],–,–,–,–,–,–,100 to 1000,100 to 1000,100 to 1000,< 100,100 to 1000,< 100,–,–,–,–
"CCN(c1nc(OC[C@@]23CCCN2C[C@H](F)C3)nc2c(F)c(-c3ccc(F)c4sc(N)c(C#N)c34)c(C(F)(F)F)cc12)[C@H]1C[C@H]2CCN(C)C(=O)N2C1 (atropisomer, axis not shown) [Compound 666]",< 100,< 100,< 100,< 100,< 100,< 100,–,–,–,–,–,–,–,–,–,–
COCCN(C)c1nc(OC[C@@]23CCCN2C[C@H](F)C3)nc2c(F)c(-c3ccc(F)c4sc(N)c(C#N)c34)c(C(F)(F)F)cc12 [Compound 167],–,–,–,–,–,–,–,–,–,< 100,–,< 100,100 to 1000,100 to 1000,100 to 1000,100 to 1000
"CCN(c1nc(OC[C@@]23CCCN2C[C@H](F)C3)nc2c(F)c(-c3ccc(F)c4sc(N)c(C#N)c34)c(C(F)(F)F)cc12)[C@H]1C[C@@H](C)N(C(=O)[C@H](C)OC)C1 (atropisomer, axis not shown) [Compound 753]",100 to 1000,100 to 1000,100 to 1000,< 100,100 to 1000,< 100,–,–,–,–,–,–,–,–,–,–
CN1C[C@H](N(C)c2nc(OC[C@@]34CCCN3C[C@H](F)C4)nc3c(F)c(-c4ccc(F)c5sc(N)c(C#N)c45)c(C(F)(F)F)cc23)CC1=O [Compound 285],–,–,–,–,–,–,100 to 1000,100 to 1000,100 to 1000,< 100,100 to 1000,< 100,–,–,–,–
CCc1c(C(=O)N(C)C)nn2c1CN(c1nc(OCC34CCCN3CC(F)C4)nc3c(F)c(-c4ccc(F)c5sc(N)c(C#N)c45)c(C(F)(F)F)cc13)CC2 (stereo not drawn) [Compound 773],100 to 1000,100 to 1000,100 to 1000,< 100,100 to 1000,< 100,–,–,–,–,–,–,–,–,–,–
C/C=C/C(=O)N1CC[C@@H](N(C)c2nc(OC[C@@]34CCCN3C[C@H](F)C4)nc3c(F)c(-c4ccc(F)c5sc(N)c(C#N)c45)c(C(F)(F)F)cc23)[C@H]1C [Compound 670],100 to 1000,100 to 1000,100 to 1000,< 100,100 to 1000,< 100,–,–,–,–,–,–,–,–,–,–
CN(C)C(=O)c1nc2c(s1)CCN(c1nc(OCC34CCCN3CC(F)C4)nc3c(F)c(-c4ccc(F)c5sc(N)c(C#N)c45)c(C(F)(F)F)cc13)C2 (stereo not drawn) [Compound 445],–,–,–,–,–,–,1000 to 10000,> 10000,> 10000,> 1000,> 10000,100 to 1000,–,–,–,–
N#Cc1c(N)sc2c(F)ccc(-c3c(C(F)(F)F)cc4c(N5C[C@H]6C[C@@H]5CS6(=O)=O)nc(OC[C@@]56CCCN5C[C@H](F)C6)nc4c3F)c12 [Compound 322],–,–,–,–,–,–,100 to 1000,100 to 1000,1000 to 10000,< 100,100 to 1000,100 to 1000,–,–,–,–

# More lines, now with the values ahead:
"IC50 [1, 5] [nM]","IC50 [2, 6] [nM]","IC50 [3, 7] [nM]",IC50 (GP2d cells (KRAS G12D); class symbols) [nM],"IC50 [4, 8] [nM]",IC50 (SW620 cells (KRAS G12V); class symbols) [nM],IC50 ([1]; KRAS G12D-GppNHp/RAF1 RBD HTRF) [nM],IC50 ([2]; KRAS WT-GppNHp/RAF1 RBD HTRF) [nM],IC50 ([3]; KRAS G12V-GppNHp/RAF1 RBD HTRF) [nM],IC50 (GP2d cells (KRAS G12D)) [nM],IC50 ([4]; KRAS G12R-GppNHp/RAF1 RBD HTRF) [nM],IC50 (SW620 cells (KRAS G12V)) [nM],"IC50 [1, 9] [nM]","IC50 [2, 10] [nM]","IC50 [3, 11] [nM]","IC50 [4, 12] [nM]",Compound
–,–,–,–,–,–,100 to 1000,100 to 1000,100 to 1000,< 100,100 to 1000,< 100,–,–,–,–,C[C@@H]1[C@H](N(C)c2nc(OC[C@@]34CCCN3C[C@H](F)C4)nc3c(F)c(-c4ccc(F)c5sc(N)c(C#N)c45)c(C(F)(F)F)cc23)CCN1C(=O)C1(C)CC1 [Compound 313]
–,–,–,–,–,–,–,–,–,100 to 1000,–,100 to 1000,100 to 1000,100 to 1000,100 to 1000,100 to 1000,N#Cc1c(N)sc2c(F)ccc(-c3c(C(F)(F)F)cc4c(N5CCCC6(C5)NC(=O)NC6=O)nc(OC[C@@]56CCCN5C[C@H](F)C6)nc4c3F)c12 (stereo partly drawn) [Compound 248]
–,–,–,–,–,–,–,–,–,< 100,–,100 to 1000,100 to 1000,100 to 1000,100 to 1000,100 to 1000,C[C@]1(O)CCN(c2nc(OC[C@@]34CCCN3C[C@H](F)C4)nc3c(F)c(-c4ccc(F)c5sc(N)c(C#N)c45)c(C(F)(F)F)cc23)C1 [Compound 242]
–,–,–,–,–,–,100 to 1000,100 to 1000,1000 to 10000,< 100,100 to 1000,< 100,–,–,–,–,C[C@@H]1[C@H](N(C)c2nc(OC[C@@]34CCCN3C[C@H](F)C4)nc3c(F)c(-c4ccc(F)c5sc(N)c(C#N)c45)c(C(F)(F)F)cc23)CCN1C(=O)C1(F)CC1 [Compound 425]
–,–,–,–,–,–,1000 to 10000,100 to 1000,1000 to 10000,< 100,1000 to 10000,< 100,–,–,–,–,CN1C[C@H](N(C)c2nc(OC[C@@]34CCCN3C[C@H](F)C4)nc3c(F)c(-c4ccc(F)c5sc(N)c(C#N)c45)c(C(F)(F)F)cc23)CCC1=O [Compound 441]
–,–,–,–,–,–,1000 to 10000,100 to 1000,1000 to 10000,< 100,1000 to 10000,100 to 1000,–,–,–,–,CC(=O)N1CC[C@@](C)(N(C)c2nc(OC[C@@]34CCCN3C[C@H](F)C4)nc3c(F)c(-c4ccc(F)c5sc(N)c(C#N)c45)c(C(F)(F)F)cc23)[C@H]1C [Compound 342]
< 100,< 100,100 to 1000,< 100,< 100,< 100,–,–,–,–,–,–,–,–,–,–,CCN(CC)C(=O)N1CCC(N(CC)c2nc(OCC34CCCN3CC(F)C4)nc3c(F)c(-c4ccc(F)c5sc(N)c(C#N)c45)c(C(F)(F)F)cc23)C1 (stereo not drawn) [Compound 572]
< 100,< 100,< 100,< 100,< 100,< 100,–,–,–,–,–,–,–,–,–,–,"CCN(c1nc(OC[C@@]23CCCN2C[C@H](F)C3)nc2c(F)c(-c3ccc(F)c4sc(N)c(C#N)c34)c(C(F)(F)F)cc12)[C@H]1C[C@H]2CN(C3CC3)C(=O)N2C1 (atropisomer, axis not shown) [Compound 775]"
